Results taken from US12600732B2, “Bifunctional compounds for degrading BTK via ubiquitin proteosome pathway” (NURIX THERAPEUTICS, INC., priority 2019, dated 2026).
Several values for one entry are separate records, joined by “and”; a condition that tells them apart may be missing. Equal values may be shown once. Read-outs that look alike come from different tables or passages of the source.

Assays:
[1] = tested on: TMD8 BTK C481S tumor cells; assay: TMD8 BTK C481S xenograft efficacy study; assay type: in vivo, mouse; conditions: PO
Experimental: […] Tumor growth inhibition (% TGI) were calculated on the final day of measurement using the equation [1−(T−T0/C−T0)]×100, where T and C represent the mean size of tumors in the treated (T) and control (C) groups, and T0 refers to the tumor size at randomization.
This example examines the activity of various BTK CTMs in relevant disease models, including the WT and C481S TMD8 model, which models B cell malignancies with/without inhibitor-driven BTK mutations at C481.

BTK [2] = target: BTK (Homo sapiens, UniProt Q06187); assay: BTK degradation (Total BTK HTRF) in Rec-1 cells (Mantle Cell Lymphoma model); assay type: cell-based; design: endogenous in cells; host or cells: TMD8, Mino, Rec-1; conditions: treatment time 4 h
Experimental: BTK levels were determined using Cisbio Total-BTK HTRF (Homologous Time-Resolved Fluorescence) kit (63ADK064PEG) according to the manufacturer's protocol. Briefly, cells were incubated in 1× supplied lysis buffer for 30 minutes. In an opaque white low volume 96-well plate (Cisbio, 66PL96005), cell lysate was combined with two different specific BTK antibodies, one conjugated with Eu^3+-Cryptate FRET donor and one conjugated with d2 FRET acceptor. Assay controls include wells containing cell lysate with only the Eu^3+-Cryptate FRET donor antibody and wells containing both HTRF antibodies and lysis buffer without cells or control lysate provided by Cisbio. HTRF ratio was calculated as (acceptor signal at 665 nm/donor signal at 620 nm)×10^4. Background HTRF levels were determined from the control well containing the donor, but no acceptor, antibody. Background HTRF levels were subtracted from all samples. Readouts were reported as HTRF levels relative to HTRF levels of DMSO-treated cells. Four-parameter non-linear regressions were performed in GraphPad Prism 7.02 to obtain DC50 values.
This example evaluates the potency of CTMs in a model of Mantle Cell Lymphoma (MCL). To evaluate potential therapeutic indications, BTK CTMs were assayed in models of Mantle Cell Lymphoma as with the TMD8 cells (ABC-DLBCL) above. Tested CTMs had similar potencies for BTK degradation in the MCL cell lines (Mino and Rec-1) and TMD8 cells.

[3] = tested on: B cell receptor (BCR) signaling; assay: B cell activation assay (flow cytometry), human B cells; assay type: cell-based; conditions: treatment 4 h, IgM stimulation 18 h
Experimental: Compound was present throughout the stimulation. Cells were stained with Live/Dead dye (Fisher L34976) and then fluorophore-conjugated antibodies against CD20 (Biolegend 302330), CD3 (BD Pharmingen 557705), CD86 (Biolegend 305416) and CD69 (Biolegend 310906). Stained cells were fixed in PFA and run on an Attune N×T Acoustic Focusing Flow Cytometer (Thermo-Fisher A29004), and data was analyzed using FlowJo (v10.5.3) and GraphPad Prism (v7.00) software. Single live lymphocytes were gated for B cells (CD20+CD3−) and T cells (CD3+CD20−), and the geometric mean fluorescence intensity (MFI) of CD86 and CD69 was calculated for each population. The MFI of the unstimulated sample was used to quantify baseline activation.
This example evaluates whether CTM treatment affects B cell receptor (BCR) signaling. BTK is activated downstream of the B cell receptor and leads to upregulation of activation markers CD86 and CD69 on the surface of B cells.

BTK [4] = assay: Non-human primate (cyno) DRF PD, BTK remaining in B cells; assay type: in vivo; conditions: blood, 24 h after previous dose
Experimental: (§1) This example evaluates potency and tolerability of BTK CTMs following multiple, consecutive days of dosing and examines potency of compounds for BTK and Aiolos degradation. The data in the table below is from a study in which animals were dosed daily with the designated oral dose. Analysis for BTK and Aiolos levels was performed twenty-four hours following the previous dose.

[5] = Compound plasma exposure in cyno DRF study; assay type: in vivo; conditions: cynomolgus monkey, po
[6] = Compound plasma exposure in cyno DRF study; assay type: in vivo; conditions: cynomolgus monkey, po; remark: listed apart in the source
Experimental: This example evaluates compound plasma concentration which results in in vivo BTK and/or Aiolos degradation in cyno. The data in the table below is from a study in which animals were dosed daily with the designated oral dose. Analysis for compound concentration in plasma was performed twenty-four hours following the previous dose.

Aiolos = assay: Non-human primate (cyno) DRF PD, Aiolos remaining in T cells; assay type: in vivo; conditions: for % Aiolos Remaining in T cells: blood, 24 h after previous dose
Experimental: as §1

[7] = 30 mg/kg, QD, 23 days of dosing
[8] = 10 mg/kg PO daily, 1 day of dosing
[9] = 10 mg/kg PO daily, 14 days of dosing
[10] = 30 mg/kg PO daily, 1 day of dosing
[11] = 30 mg/kg PO daily, 14 days of dosing
[12] = 100 mg/kg PO daily, 1 day of dosing
[13] = 100 mg/kg PO daily, 14 days of dosing
[14] = 10 mg/kg, 10 mg/kg PO, 1 day of dosing
[15] = 30 mg/kg, 30 mg/kg PO, 1 day of dosing
[16] = 100 mg/kg, 100 mg/kg PO, 1 day of dosing
[17] = 100 mg/kg, 100 mg/kg PO, 14 days of dosing
[18] = 10 mg/kg, 10 mg/kg PO, 14 days of dosing
[19] = 30 mg/kg, 30 mg/kg PO, 14 days of dosing
[20] = 10 mg/kg, QD, 23 days of dosing
[21] = 10 mg/kg, QD, 24 days of dosing
[22] = 30 mg/kg, QD, 24 days of dosing
[23] = 90 mg/kg, QD, 24 days of dosing

BTK (Homo sapiens, UniProt Q06187), sequence (Q06187 whole entry): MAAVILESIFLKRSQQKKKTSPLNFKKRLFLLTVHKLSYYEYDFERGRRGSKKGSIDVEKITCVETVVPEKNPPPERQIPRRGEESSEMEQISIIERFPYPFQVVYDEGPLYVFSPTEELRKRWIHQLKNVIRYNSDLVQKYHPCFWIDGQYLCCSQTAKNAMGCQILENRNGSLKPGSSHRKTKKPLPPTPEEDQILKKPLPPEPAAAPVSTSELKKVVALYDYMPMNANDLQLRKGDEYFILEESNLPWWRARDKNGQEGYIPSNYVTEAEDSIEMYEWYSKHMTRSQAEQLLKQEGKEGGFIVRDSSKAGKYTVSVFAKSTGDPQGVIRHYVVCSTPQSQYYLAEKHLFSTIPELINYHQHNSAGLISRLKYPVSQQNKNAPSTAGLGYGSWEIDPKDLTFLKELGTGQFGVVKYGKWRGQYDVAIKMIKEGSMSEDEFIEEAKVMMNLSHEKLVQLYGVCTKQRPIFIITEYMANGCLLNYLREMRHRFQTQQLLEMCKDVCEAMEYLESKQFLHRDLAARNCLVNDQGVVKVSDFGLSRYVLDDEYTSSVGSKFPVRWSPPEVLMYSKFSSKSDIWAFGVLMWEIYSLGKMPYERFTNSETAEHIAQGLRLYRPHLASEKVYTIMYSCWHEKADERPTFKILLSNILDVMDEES

DC50 (BTK [2]) | EC50 ([3]; read-out: CD69 EC50) | EC50 ([3]; read-out: CD86 EC50) | AUC [5, 14] | AUC [5, 15] | Cmax [5, 16] | AUC [5, 17] | Cmax [6, 14] | AUC [6, 18] | Cmax [6, 18] | Cmax [6, 15] | AUC [6, 19] | Cmax [6, 19] | SMILES | Tumor Growth Inhibition (relative to vehicle) [1, 7] | % BTK Remaining in B cells (BTK [4]; [8]) | % BTK Remaining in B cells (BTK [4]; [9]) | % BTK Remaining in B cells (BTK [4]; [10]) | % BTK Remaining in B cells (BTK [4]; [11]) | % BTK Remaining in B cells (BTK [4]; [12]) | % BTK Remaining in B cells (BTK [4]; [13]) | also measured
1 nM | 0.5 nM | 0.5 nM | 0.148 µM·h | 0.268 µM·h | 22.6 nM | 1.52 µM·h | 10.6 nM | 0.467 µM·h | 34 nM | 18 nM | 0.794 µM·h | 55.5 nM | CN1CCN([C@@H]2CCCN(c3cnc(C(N)=O)c(Nc4ccc(C5CCN(C[C@H]6CCN(c7ccc8c(c7)C(=O)N(C7CCC(=O)NC7=O)C8=O)C6)CC5)cc4)n3)C2)C1=O (stereo partly shown) [Compound 44] | 48% and 51% and 36% | 35% | 16% | 31% | 10% | 14% | 6% | Tumor Growth Inhibition (relative to vehicle) ([1]; 5 mg/kg, BID, 23 days of dosing): 65%; Tumor Growth Inhibition (relative to vehicle) ([1]; 15 mg/kg, BID, 23 days of dosing): 62%; Tumor Growth Inhibition (relative to vehicle) ([1]; 30 mg/kg, BID, 23 days of dosing): 70% and 78%; Tumor Growth Inhibition (relative to vehicle) ([1]; 60 mg/kg, QD, 23 days of dosing): 70%; AUC [6, 16]: 0.294 µM·h; Cmax [6, 17]: 94.2 nM; % Aiolos Remaining in T cells (Aiolos; [8]): 96%; % Aiolos Remaining in T cells (Aiolos; [9]): 71%; % Aiolos Remaining in T cells (Aiolos; [10]): 99%; % Aiolos Remaining in T cells (Aiolos; [11]): 69%; % Aiolos Remaining in T cells (Aiolos; [12]): 96%; % Aiolos Remaining in T cells (Aiolos; [13]): 63%
2 nM | 0.4 nM | 0.5 nM | 0.172 µM·h | 0.582 µM·h | 96 nM | 3.84 µM·h | 20 nM | 0.387 µM·h | 28 nM | 55 nM | 0.844 µM·h | 54 nM | CN1CCN([C@H]2CCCN(c3cnc(C(N)=O)c(Nc4ccc(C5CCN(CC6CCN(c7ccc(C(=O)NC8CCC(=O)NC8=O)nc7)CC6)CC5)cc4)n3)C2)C1=O (stereo partly shown) [Compound 130] | 79% | 6% | 5% | 3% | 5% | 4% | 4% | Tumor Growth Inhibition (relative to vehicle) [1, 20]: 58%; Tumor Growth Inhibition (relative to vehicle) [1, 21]: 90%; Tumor Growth Inhibition (relative to vehicle) [1, 22]: 100%; Tumor Growth Inhibition (relative to vehicle) [1, 23]: 100%; AUC [6, 16]: 1.4 µM·h; Cmax [6, 17]: 177 nM; % Aiolos Remaining in T cells (Aiolos; [8]): 102%; % Aiolos Remaining in T cells (Aiolos; [9]): 96%; % Aiolos Remaining in T cells (Aiolos; [10]): 98%; % Aiolos Remaining in T cells (Aiolos; [11]): 108%; % Aiolos Remaining in T cells (Aiolos; [12]): 106%; % Aiolos Remaining in T cells (Aiolos; [13]): 99%

SMILES | DC50 (BTK [2]) | EC50 ([3]; read-out: CD69 EC50) | EC50 ([3]; read-out: CD86 EC50) | AUC [5, 14] | AUC [5, 15] | Cmax [5, 16] | AUC [5, 17] | Cmax [6, 14] | AUC [6, 18] | Cmax [6, 18] | Cmax [6, 15] | AUC [6, 19] | Cmax [6, 19] | Tumor Growth Inhibition (relative to vehicle) [1, 7] | % BTK Remaining in B cells (BTK [4]; [8]) | % BTK Remaining in B cells (BTK [4]; [9]) | % BTK Remaining in B cells (BTK [4]; [10]) | % BTK Remaining in B cells (BTK [4]; [11]) | % BTK Remaining in B cells (BTK [4]; [12]) | % BTK Remaining in B cells (BTK [4]; [13]) | also measured
NC(=O)c1ncc(N2CCCCC2)nc1Nc1ccc(C2CCN(C[C@@H]3CCN(c4ccc5c(c4)C(=O)N(C4CCC(=O)NC4=O)C5=O)C3)CC2)cc1 (stereo partly shown) [Compound 149] | 4 nM | 4 nM | 5 nM | 0.386 µM·h | 0.72 µM·h | 76 nM | 2.66 µM·h | 42 nM | 0.763 µM·h | 49 nM | 51 nM | 1.48 µM·h | 88 nM | 29% | 9% | 7% | 4% | 6% | 3% | 6% | Tumor Growth Inhibition (relative to vehicle) [1, 20]: 27%; Tumor Growth Inhibition (relative to vehicle) [1, 21]: 17%; Tumor Growth Inhibition (relative to vehicle) [1, 22]: 43%; Tumor Growth Inhibition (relative to vehicle) [1, 23]: 59%; AUC [6, 16]: 0.714 µM·h; Cmax [6, 17]: 159 nM; Aiolos degradation (Aiolos; after fourteen days of dosing): demonstrated Aiolos degradation; % Aiolos Remaining in T cells (Aiolos; [8]): 79%; % Aiolos Remaining in T cells (Aiolos; [9]): 76%; % Aiolos Remaining in T cells (Aiolos; [10]): 74%; % Aiolos Remaining in T cells (Aiolos; [11]): 55%; % Aiolos Remaining in T cells (Aiolos; [12]): 77%; % Aiolos Remaining in T cells (Aiolos; [13]): 43%
